From patent US20240150396A1 (The Texas A&M University System, priority 2021, published 2024)
Where “and” joins values, the source holds several entries; their conditions need not be identical. Equal entries are not always repeated. Where two headings read alike, the source gives them in different places. Residues, ends and D or L forms follow the SMILES beside them. *: point of attachment. AMC = Cc1cc(=O)oc2cc(N*)ccc12; Cbz = O=C(OCc1ccccc1)*

How the values were obtained:
[1] = target: human cathepsin L (Homo sapiens (Human), UniProt P07711); test: Human cathepsin L inhibition, Z-FR-AMC assay; assay type: biochemical; conditions: pH 5.5, 25° C.
Sequence of human cathepsin L (P07711 114-333): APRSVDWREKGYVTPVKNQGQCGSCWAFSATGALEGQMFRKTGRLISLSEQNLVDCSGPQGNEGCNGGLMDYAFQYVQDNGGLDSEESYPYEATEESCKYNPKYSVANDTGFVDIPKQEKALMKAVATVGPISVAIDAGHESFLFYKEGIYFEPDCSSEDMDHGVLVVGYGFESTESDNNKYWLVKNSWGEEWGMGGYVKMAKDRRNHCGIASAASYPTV
Protocol: (§1) Recombinant human cathepsins B and L were purchased from Millipore Sigma and used without further treatment. The solid proteins were dissolved into a solution of 50 mM sodium acetate (pH 5.5), 1 mM EDTA, 1 mM CHAPS, 10% (v/v) DMSO, and 5 mM DTT to final concentrations of […] in 20-mL aliquots, and stored at −80° C. until needed. These samples were then diluted into the same buffer to concentrations of −100 nM, and these dilutions were stored at 4° C. and used daily until depletion.
(§2) For assays of cathepsin L and B, inhibitors were evaluated in 0.25-mL reaction mixtures containing a buffer of sodium acetate (pH 5.5), 1 mM CHAPS, 1 mM Na2EDTA, and 5 mM DTT at 25° C. The fluorogenic substrate Cbz-Phe-Arg-7-amino-4-methyl-coumarin (Z-FR-AMC) was dissolved in 100% DMSO, as were all inhibitors, and aliquots of both substrates and inhibitors were added to reaction mixtures to final concentrations of DMSO of 10% (v/v). […] Formation of the fluorescent product AMC was monitored over 30-60-minute time courses for reaction mixtures in 96-well black microplates (Corning Costar®). Rates of peptidolysis of the dipeptide-AMC substrate(s) were measured on either a SpectraMax M5 (Molecular Devices) or a Synergy HTX (Biotek, Wisnooki, VT) microplate reader with λex=360 nm, λem=460 nm in ≥8-sec intervals. Control samples excluded substrate. The measured relative fluorescence units (RFUs) of generated AMC were converted to reaction rates of μM/s by use of a standard curve of known AMC concentrations obtained for both plate readers.

[2] = target: human cathepsin B (Homo sapiens (Human), UniProt P07858); test: Human cathepsin B inhibition, Z-FR-AMC assay; assay type: biochemical; conditions: pH 5.5, 25° C.
Protocol: as §1, §2

[3] = system: T. cruzi (Ca-I/72) in C2C12 murine cardiomyoblasts; test: T. cruzi-infected murine cardiomyoblasts (C2C12); assay type: cell-based, Trypanosoma cruzi; conditions: read-out: EC50 T. cruzi-infected cardiomyoblasts
Protocol: For the evaluation of the antitrypanocidal activity of cruzain inhibitors, we infected a C2C12 mouse cardiomyoblast cell line (ATCC CRL-1772) with T. cruzi strain Ca-I/72 (a gift from James Dvorak, National Institutes of Health) in […] plates. […] The plates were incubated at 37° C. for 48 h, and the wells were fixed with 2% paraformaldehyde in PBS and stained with 5 μg mL-1 4,6-diamidino-2-phenylindole. After at least 30 min of incubation at room temperature in the dark, the plates were read in an automated microscope, ImageXpress Micro XL (Molecular Devices), and the images were analyzed by custom-built software to quantify and assess viability of the parasites, as well as the host cells independently. The compilation of data was used to calculate the antiparasitic activity (EC50) and host cytotoxicity (CC50).
T. cruzi infection was evaluated in C2C12 murine cardiomyoblast cells. 384-microwell plates containing C2C12 murine cardiomyoblast cells were infected with 10^3 and 10^4 cells of T. cruzi (Ca-I/72), to which was added 3-fold serially-dilutions of inhibitor with maximal concentrations of 10 μM, followed by incubation at 37° C. for 2 days. The wells were fixed with 2% PFA in PBS, and stained by 5 μg/ml of DAPI. After >30 min of incubation in a dark environment, the plates were read on an ImageXpress MicroXL microscope (Molecular Devices). The images were analyzed to quantify parasites as well host cells.

[4] = system: T. b. brucei procyclic forms; test: Growth of axenic cultures of T. b. brucei procyclic forms (PCFs); assay type: cell-based, Trypanosoma brucei brucei; conditions: axenic culture, read-out: EC50 T. b. brucei PCF
[5] = system: human dermal fibroblasts; test: Human cell toxicity, resazurin viability; assay type: cell-based; conditions: human dermal fibroblasts; read-out: Human Cell Cytotoxicity CC50
Protocol: Primary human dermal fibroblast (HDF) cells were used to evaluate human cell toxicity of cruzain inhibitors. HDF cells were plated in a 384-well plate at 2400 cells per well (62,000 cells mL^−1). Inhibitors in 100% DMSO were added in duplicate to final concentrations of 0.001-0.1 mM and 1% DMSO (v/v) with 1% DMSO as a control sample, and cells were cultured at 37° C. for 48 h, followed by the addition of resazurin. Cell viability was then assessed by reading of fluorescence (excitation/emission: 544 nm/590 nm) after an additional 24 h of incubation.

[6] = Host cell cytotoxicity in the T. cruzi infection model; assay type: cell-based, mouse; conditions: mouse; host cardiomyoblasts; read-out: C2C12 Cytotoxicity CC50
Protocol: The plates were incubated at 37° C. for 48 h, and the wells were fixed with 2% paraformaldehyde in PBS and stained with 5 μg mL-1 4,6-diamidino-2-phenylindole. After at least 30 min of incubation at room temperature in the dark, the plates were read in an automated microscope, ImageXpress Micro XL (Molecular Devices), and the images were analyzed by custom-built software to quantify and assess viability of the parasites, as well as the host cells independently. The compilation of data was used to calculate the antiparasitic activity (EC50) and host cytotoxicity (CC50).
T. cruzi infection was evaluated in C2C12 murine cardiomyoblast cells. […] The wells were fixed with 2% PFA in PBS, and stained by 5 μg/ml of DAPI. After >30 min of incubation in a dark environment, the plates were read on an ImageXpress MicroXL microscope (Molecular Devices). The images were analyzed to quantify parasites as well host cells.

[7] = system: T. cruzi epimastigotes (strain Y); test: Growth of axenic cultures of T. cruzi epimastigotes; conditions: for EC50: Trypanosoma cruzi, read-out: T. cruzi axenic culture EC50, epimastigotes; for T. cruzi axenic culture EC50: epimastigotes
Protocol: Selected cruzain inhibitors in axenic cell cultures of Trypanosoma brucei brucei (procyclic trypomastigotes; ATCC PRA-381) and Trypanosoma cruzi (epimastigote forms; strain Y, ATCC 50832GFP) were tested. T. b. brucei is grown in SDM-79 medium, and T. cruzi is grown in ATCC medium (1029 LIT medium). Both media included fetal calf serum (10%) and penicillin/streptomycin (50 U/mL). […] T. brucei and T. cruzi (5 mL in flask cultures) at 26° C. were seeded at ˜3×10^6 cells, and diluted daily maintaining a mid-log growth phase for up to 100 hrs. Cell counts were scored using a Z2 Coulter Counter. After each cell dilution, fresh compound or an equal volume of DMSO (control samples), was supplemented into the cultures. […] Cruzain inhibitors where the highest concentration reflects the upper limit of solubilities of the inhibitors in 1% (v/v) DMSO solutions were evaluated. These inhibitors are likely to bind to proteins in fetal calf serum, and for these reasons, fresh inhibitors were added each time cells were re-fed.
Selected cruzain inhibitors were evaluated in axenic cell cultures of T. b. brucei and T. cruzi. Procyclic trypomastigotes of T. b. brucei (ATCC PRA-381) were grown in the SDM-79 medium at 26° C., and bloodstream forms (ATCC PRA-383) were grown at 37° C. in the HMI-9 medium at 5% C02. T. cruzi (epimastigote forms, strain Y, ATCC 50832GFP) was grown in the ATCC medium (1029 LIT medium). Both forms of T. b. brucei and T. cruzi were grown in media containing 10% fetal bovine serum (FBS) and penicillin/streptomycin (50 U mL^−1). […] Control samples contained equal amounts of DMSO. T. b. brucei and T. cruzi (5 mL in flask cultures) were seeded at ˜3×10^6 cells and diluted daily, maintaining a mid-log growth phase for up to 120 h. […] After each cell dilution, fresh compound or an equal volume of DMSO (control samples) was supplemented into the cultures, while maintaining a constant concentration of each inhibitor. Cell counts were scored using a Z2 Coulter Counter.

[8] = system: T. b. brucei bloodstream forms; test: Growth of axenic cultures of T. b. brucei bloodstream forms (BSFs)
Protocol: Selected cruzain inhibitors were evaluated in axenic cell cultures of T. b. brucei and T. cruzi. Procyclic trypomastigotes of T. b. brucei (ATCC PRA-381) were grown in the SDM-79 medium at 26° C., and bloodstream forms (ATCC PRA-383) were grown at 37° C. in the HMI-9 medium at 5% C02. […] Both forms of T. b. brucei and T. cruzi were grown in media containing 10% fetal bovine serum (FBS) and penicillin/streptomycin (50 U mL^−1). […] Control samples contained equal amounts of DMSO. T. b. brucei and T. cruzi (5 mL in flask cultures) were seeded at ˜3×10^6 cells and diluted daily, maintaining a mid-log growth phase for up to 120 h. […] After each cell dilution, fresh compound or an equal volume of DMSO (control samples) was supplemented into the cultures, while maintaining a constant concentration of each inhibitor. Cell counts were scored using a Z2 Coulter Counter.
In vitro Cell Assays. Bloodstream form T. b. brucei strain SM427 was grown in HM1-9 medium that included fetal bovine serum (10%) and antibiotics (100 U/mL penicillin-streptomycin, Gibco™). Inhibitors dissolved in 100% (v/v) DMSO stock solutions were added at final concentrations of 0.5-20 μM (final concentrations of DMSO were <1% (v/v)). T. b. brucei were seeded at ˜1×10^6 cells at 37° C., and diluted daily to maintain a log phase of growth for up to 96 h. […] After each dilution, the cell cultures were supplemented with inhibitor or DMSO (control) to keep concentrations constant. Cell density was determined and graphed as previously reported.^36 Trypanosomes were quantified using a Z2 Coulter Counter, and values of EC50 were determined after 3-4 days of treatment by the interpolation method of Huber and Koella.^37

[9] = target: T1, cruzain (Trypanosoma cruzi, UniProt P25779); test: biochemical; conditions: pH 7.5
T1 sequence (P25779 123-467 limits assumed): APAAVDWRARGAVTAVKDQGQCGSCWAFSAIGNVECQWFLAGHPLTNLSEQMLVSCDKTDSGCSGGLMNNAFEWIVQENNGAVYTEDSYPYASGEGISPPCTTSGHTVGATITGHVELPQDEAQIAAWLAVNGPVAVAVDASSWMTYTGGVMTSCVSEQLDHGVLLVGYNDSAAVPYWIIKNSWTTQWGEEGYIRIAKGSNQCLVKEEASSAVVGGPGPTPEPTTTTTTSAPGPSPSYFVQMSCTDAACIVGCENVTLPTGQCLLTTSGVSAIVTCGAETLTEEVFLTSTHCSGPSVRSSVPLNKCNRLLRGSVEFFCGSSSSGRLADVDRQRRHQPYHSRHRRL
In short: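 Fluorogenic assay at 25 °C following AMC release (ex 360/em 460 nm), with typically 0.2 nM cruzain and 10% DMSO, at pH 7.5 or 5.5 buffer with 5 mM DTT.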

[10] = target: SARS-CoV-2 3CL protease (Severe acute respiratory syndrome coronavirus 2 (2019-nCoV) (SARS-CoV-2), UniProt P0DTD1); test: biochemical; assay type: biochemical; conditions: for Ki: read-out: Ki* 3CLpro
[11] = system: SARS-CoV-2 in Vero E6 cells; test: Anti-CoV-2 activity in Vero E6 cells; assay type: cell-based
[12] = system: trypanosomes (T. b. brucei, T. cruzi); test: Anti-trypanosomal activity, culture not stated; assay type: cell-based; conditions: culture (T. b. brucei PCF/BSF or T. cruzi-infected cardiomyoblasts) not stated
[13] = target: T1, cruzain; test: Kinetic parameters of peptide substrates for cruzain; assay type: biochemical; conditions: relative to Cbz-Phe-Arg-AMC
Protocol: All enzyme assays were performed at 25° C. Initial rates of the peptidolytic reaction catalyzed by cruzain were measured by monitoring the fluorescence generated by cleavage of the dipeptide-AMC bond. Assays were conducted in 96-well plates (Greiner; flat-bottom, clear black plates) in a total volume of 250 μL, containing either 50 mM MES (pH 7.5), 50 mM TAPSO, 100 mM DEA, 1 mM CHAPS, 1 mM Na2EDTA, 5 mM DTT, and 10% DMSO (v/v) or 50 mM sodium acetate (pH 5.5), 50 mM MES, 100 mM TEA, 1 mM CHAPS, 1 mM Na2EDTA, 5 mM DTT, and 10% DMSO (v/v). Substrates were dissolved in 100% DMSO and were then diluted 10-fold such that when added to reaction mixtures, final DMSO concentration was 10% (v/v). Reactions were initiated with the addition of 1-10 μL of cruzain (final concentrations: 0.1-3.0 nM (preincubation studies)). Fluorescence was measured on either a SpectraMax M5 (Molecular Devices) or a Synergy HTX (BioTek, Winooski, VT) microplate reader (λex=360 nm, λem=460 nm). Initial rates were determined from continuous kinetic time courses and calculated from the earliest time points, typically at less than 10 min.
Initial velocity data for cruzain-catalyzed reactions of fluorogenic peptide substrates were determined by fitting to eq 1 using GraphPad Prism 6.0 or SigmaPlot 12.0. For eq 1, kcat is the turnover number, [E]t is the concentration of active sites of cruzain, and Ka is the Michaelis constant for the substrate A. Cruzain concentrations were determined by spectrophotometric analysis of purified sample solutions as described.^44

[14] = target: T1, cruzain; conditions: 2% DMSO, from Ref. 40; cited from earlier work
[15] = Trypanosoma cruzi, C2C12, C2C12 murine cardiomyoblasts
[16] = Trypanosoma brucei, read-out: EC50 T. b. brucei BSF, axenic culture
[17] = obtained >10 minutes following initiation of reaction by addition of enzyme, read-out: Ki* Cruzain
[18] = read-out: EC50 T. b. brucei BSF, axenic culture

## O=C(N[C@@H](Cc1ccccc1)C(=O)N[C@H](/C=C/c1ccccn1)CCc1ccccc1)OCc1ccccc1 [Compound 13, Benzyl ((S)-1-Oxo-3-phenyl-1-(((S,E)-5-phenyl-1-(pyridin-2-yl)-pent-1-en-3-yl)amino)propan-2-yl)carbamate]
[1]; 10% DMSO, read-out: Ki* Human Cathepsin L
  Ki: 1.9 ± 0.2 µM
[2]; 10% DMSO, read-out: Ki* Human Cathepsin B
  Ki: 6.5 ± 0.9 µM
[3]; C2C12 murine cardiomyoblasts
  EC50: 5.9 ± 0.3 µM
[3]; [15]
  EC50: 5 to 10 µM
[4]; Trypanosoma brucei
  EC50: 5.5 µM
[4]
  EC50: > 10 µM
[5]
  CC50: > 100 µM
[6]
  CC50 at 48 h: > 10 µM
[7]
  EC50: > 20 µM
  T. cruzi axenic culture EC50: poorly effective
[8]; [16]
  EC50: 4 ± 2 µM

## COc1ccc2c(c1)CC(NC(=O)C(Cc1ccccc1)NC(=O)OCc1ccccc1)C(O)O2 (centres unmarked) [Compound 31]
[9]; [17]
  Ki: 0.35 ± 0.03 µM
[1]; read-out: Ki* hCatL
  Ki: 0.038 ± 0.002 µM
[2]; read-out: Ki* hCatB
  Ki: 5.5 ± 0.4 µM
[10]
  Ki* 3CLpro: not an inhibitor of 3CL protease
  Ki: > 10 µM
[4]
  EC50: 11 µM
[11]
  EC50: 2.5 µM and 2.5 to 7.5 µM
[12]
  EC50: 3 to 11 µM
[8]; [18]
  EC50: 3 µM and 2.6 µM

## Cc1cc(=O)oc2cc(NC(=O)[C@H](CCCN=C(N)N)NC(=O)[C@H](CCCN=C(N)N)NC(=O)OCc3ccccc3)ccc12 [Compound S6, Cbz-Arg-Arg-AMC] (Cbz-Arg-Arg-{AMC})
[13]
  kcat rel: 0.75
[14]
  Km: 3.7 ± 0.4 µM
  kcat: 7.2 ± 0.1 s⁻¹
  kcat/Km: 1.9e+06 ± 200000 M⁻¹ s⁻¹

## Cc1cc(=O)oc2cc(NC(=O)C(C)NC(=O)C(Cc3ccccc3)NC(=O)OCc3ccccc3)ccc12 (stereo not drawn) [Compound S12, Cbz-Phe-Ala-AMC]
[13]
  kcat rel: 0.09
[14]
  Km: 38 ± 2 µM
  kcat: 0.89 ± 0.06 s⁻¹
  kcat/Km: 23000 ± 3000 M⁻¹ s⁻¹

## CN1CCN(C(=O)N[C@@H](Cc2ccccc2)C(=O)N[C@H](/C=C/c2ncccn2)CCc2ccccc2)CC1 [Compound 9, 4-Methyl-N—((S)-1-oxo-3-phenyl-1-(((S,E)-5-phenyl-1-(pyrimidin-2-yl)pent-1-en-3-yl)amino)propan-2-yl)piperazine-1-carboxamide]
[9]; apparent tight-binding inhibition constant, 25° C., read-out: Ki*
  Ki: 2.2 ± 0.1 µM
[3]; [15]
  EC50: 5 to 8 µM
[6]
  CC50 at 48 h: > 10 µM
[7]
  EC50: 20 µM
  T. cruzi axenic culture EC50: poorly effective
[8]; [16]
  EC50: > 20 µM

## O=C(NC(Cc1ccccc1)C(=O)NC1Cc2cc(F)ccc2OC1O)OCc1ccccc1 (centres unmarked) [Compound 34]
[9]; [17]
  Ki: 0.048 ± 0.002 µM
[1]; read-out: Ki* hCatL
  Ki: 0.023 ± 0.001 µM
[2]; read-out: Ki* hCatB
  Ki: 2.3 ± 0.2 µM
[10]; pH 7.5
  Ki: > 10 µM
[3]; C2C12 murine cardiomyoblasts
  EC50: 3.5 µM and 3 to 5.7 µM
[4]
  EC50: 11.1 µM
[11]
  EC50: 4 µM and 2.5 to 7.5 µM
[12]
  EC50: 3 to 11 µM
[8]; [18]
  EC50: 2.7 µM

## O=C(NC(Cc1ccccc1)C(=O)NC1Cc2cc(Cl)ccc2OC1O)OCc1ccccc1 (centres unmarked) [Compound 33]
[9]; [17]
  Ki: 0.074 ± 0.01 µM
[1]; read-out: Ki* hCatL
  Ki: 0.027 ± 0.0007 µM
[2]; read-out: Ki* hCatB
  Ki: 1.4 ± 0.1 µM
[10]; pH 7.5
  Ki: > 10 µM
[4]
  EC50: 10 µM
[12]
  EC50: 6 to 10 µM
[8]; [18]
  EC50: 6 µM and 5.8 µM
